Measurements taken from patent publication US11660293B2, “Substituted 2-azabicyclo[3.1.1]heptane and 2-azabicyclo[3.2.1]octane derivatives as orexin receptor antagonists” (Chronos Therapeutics Limited, priority 2017, dated 2023).

Tests used:
[1] = biological target: T1, human Orexin type 1 receptors (Homo sapiens (Human), UniProt O43613); assay: Scintillation Proximity Assay (SPA) binding assay, [3H]SB-674042 displacement, CHO-hOX1 membranes
[2] = biological target: T2, human Orexin type 2 receptors (Homo sapiens (Human), UniProt O43614); assay: Scintillation Proximity Assay (SPA) binding assay, [3H]EMPA displacement, HEK-hOX2 membranes
[3] = Measurement of brain fraction unbound (equilibrium dialysis); format: in vitro ADME; details: pH 7.4, rat brain homogenate, 37° C., read-out: FU brain (%, rat)
Experimental: Measurement of Brain Fraction Unbound (Equilibrium Dialysis)
Brain fractions unbound were determined using equilibrium dialysis in a 96-well format as described in Kalvass and Maurer, 2002. Brain homogenates were prepared using 2 ml/g CSF surrogate (7.30 g/l NaCl, 186.4 mg/l KCl, 239.9 mg/l MgCl2, 185.2 mg/l CaCl2), and 536.0 mg/l Na2HPO4.7H2O, pH 7.4). Dialysis membranes (12-14-kDA cutoff) obtained from Spectrum Laboratories Inc. (Rancho Dominguez, Calif.) were conditioned in water (HPLC grade) for 60 min, followed by 20 min in 20% ethanol, and 15 min in CSF surrogate.
Assay compound concentrations were 5 μM. Diluted brain homogenate was spiked with the compound of interest, and 150-μl aliquots were loaded into the 96-well equilibrium dialysis apparatus and dialyzed against an equal volume of CSF surrogate. Equilibrium was achieved by incubating the 96-well equilibrium dialysis apparatus in a temperature-controlled incubator at 37° C. for 5 h, using an orbital shaker at 125 rpm. At the end of the incubation period, 50-μl aliquots of brain homogenate and buffer were transferred to a 96-well plate, and the composition in each tube was balanced with control fluid to equalize the brain and buffer volumes. Sample extraction was performed by addition of 400 μl of acetonitrile containing internal standard (rolipram). The samples were then vortex-mixed and centrifuged, and 100 μl of supernatants was transferred into a 96-well plate, diluted with 200 μl of 16% acetonitrile/water, and analyzed by liquid chromatography-tandem mass spectrometry (LC-MS/MS).
The brain unbound fraction (FU brain) was calculated from the ratio of analyte/internal standard peak area ratios determined in buffer versus brain homogenate samples using equation (1), which accounts for the effect of tissue dilution on unbound fraction (Kalvass and Maurer, 2002):
[formula] where D is the dilution factor in brain homogenate and fu-diluted is the measured free fraction of diluted brain tissue. Results

[4] = biological target: T1, human Orexin type 1 receptors; assay: Intracellular calcium measurement (FLIPR), antagonism of Orexin-A at EC80 in CHO-hOX1 cells
[5] = biological target: T2, human Orexin type 2 receptors; assay: Intracellular calcium measurement (FLIPR), antagonism of Orexin-A at EC80 in CHO-hOX2 cells

T1 sequence (O43613 whole entry): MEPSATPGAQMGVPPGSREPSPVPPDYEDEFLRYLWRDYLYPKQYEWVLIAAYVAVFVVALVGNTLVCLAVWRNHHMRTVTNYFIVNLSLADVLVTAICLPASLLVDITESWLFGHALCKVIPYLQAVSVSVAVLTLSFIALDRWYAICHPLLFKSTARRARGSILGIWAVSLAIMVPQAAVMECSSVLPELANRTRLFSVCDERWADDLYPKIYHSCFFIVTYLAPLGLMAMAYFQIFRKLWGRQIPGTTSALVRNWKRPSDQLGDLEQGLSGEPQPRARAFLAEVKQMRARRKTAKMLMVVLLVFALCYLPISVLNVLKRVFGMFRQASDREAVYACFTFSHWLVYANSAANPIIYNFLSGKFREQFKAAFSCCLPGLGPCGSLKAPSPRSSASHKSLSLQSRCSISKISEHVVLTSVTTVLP
T2 sequence (O43614 whole entry): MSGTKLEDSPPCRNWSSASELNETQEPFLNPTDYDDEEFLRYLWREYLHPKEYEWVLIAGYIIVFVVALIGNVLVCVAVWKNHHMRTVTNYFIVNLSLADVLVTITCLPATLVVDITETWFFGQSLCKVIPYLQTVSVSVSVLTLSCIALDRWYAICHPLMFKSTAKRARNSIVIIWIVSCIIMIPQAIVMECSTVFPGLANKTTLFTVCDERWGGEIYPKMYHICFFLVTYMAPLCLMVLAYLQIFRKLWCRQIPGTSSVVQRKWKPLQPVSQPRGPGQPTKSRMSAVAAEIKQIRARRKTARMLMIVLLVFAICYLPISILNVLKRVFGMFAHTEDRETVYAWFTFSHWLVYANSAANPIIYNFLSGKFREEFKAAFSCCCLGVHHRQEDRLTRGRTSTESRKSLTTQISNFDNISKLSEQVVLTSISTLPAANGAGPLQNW

| Structure (SMILES) | Ki [4] [nM] | Ki [5] [nM] | other results |
| --- | --- | --- | --- |
| Cc1ccc(-n2nccn2)c(C(=O)N2C3CC(C3)[C@@H](C)C2CNc2cnc(C(F)(F)F)cn2)n1 (single isomer, unassigned) [Example 167, N-{[(3R,4S) or (3S,4R)-4-methyl-2-[6-methyl-3-(2H-1,2,3-triazol-2-yl)pyridine-2-carbonyl]-2-azabicyclo[3.1.1]heptan-3-yl]methyl}-5-(trifluoromethyl)pyrazin-2-amine] | – | – | OX1 pKi (SPA binding) ([1]; Table 2, [3H]SB-674042 2 nM): 8.12; OX2 pKi (SPA binding) ([2]; Table 2, [3H]EMPA 2 nM): 5.13; fraction unbound at 5 h, 5 μM [3]: 0.0593 |
| Cc1ccc(-c2ncccn2)c(C(=O)N2C3CC(C3)[C@@H](C)[C@@H]2COc2ccc(F)cc2)n1 (single isomer, unassigned) [Example 93, (3S,4S or 3R,4R)-3-(4-fluorophenoxymethyl)-4-methyl-2-[6-methyl-3-(pyrimidin-2-yl)pyridine-2-carbonyl]-2-azabicyclo[3.1.]heptane] | – | – | Ki ([1]; Table 1, [3H]SB-674042 2 nM, read-out: OX1 pKi (SPA binding) (converted)): 1.95 nM; Ki ([2]; Table 1, [3H]EMPA 2 nM, read-out: OX2 pKi (SPA binding) (converted)): 407 nM; fraction unbound at 5 h, 5 μM [3]: 0.0258 |
| Cc1nc(C(=O)N2C3CC(C3)C(C)C2COc2cnc3ccc(Cl)cc3n2)c(-c2ccccc2)s1 (mixture of isomers) [Example 84, CIS/TRANS 7-chloro-2-{[4-methyl-2-(2-methyl-5-phenyl-1,3-thiazole-4-carbonyl)-2-azabicyclo[3.1.1]heptan-3-yl]methoxy}quinoxaline] | 75.9 | 1860 | – |
| Cc1ccc(-c2ncccn2)c(C(=O)N2C(COc3ccc(C(F)(F)F)cn3)CC3CC2C3)c1 (racemic) [Example 35] | 74.1 | 631 | – |
| Cc1ccc(-c2ncccn2)c(C(=O)N2C3CC(C3)[C@@H](C)[C@@H]2COc2ccc(F)cn2)n1 (single isomer, unassigned) [Example 82, (3S,4S or 3R,4R) 3-{[(5-fluoropyridin-2-yl)oxy]methyl}-4-methyl-2-[6-methyl-3-(pyrimidin-2-yl)pyridin-2-carbonyl]-2-azabicyclo[3.1.1]heptane] | 10 | 2240 | – |
| Cc1ccc(-c2ncccn2)c(C(=O)N2C3CC(C3)[C@H](C)[C@@H]2COc2ccc(F)cn2)n1 (single isomer, unassigned) [Example 81, (3S,4R or 3R,4S) 3-{[(5-fluoropyridin-2-yl)oxy]methyl}-4-methyl-2-[6-methyl-3-(pyrimidin-2-yl)pyridine-2-carbonyl]-2-azabicyclo[3.1.1]heptane] | 9.77 | 58.9 | – |
| Cc1nc(C(=O)N2C3CC(C3)C(C)C2COc2nccc3ccccc23)c(-c2ccccc2)s1 (mixture of isomers) [Example 83] | 3.47 | 46.8 | – |
| Cc1nc(C(=O)N2C(COc3ccc(F)cc3)CC3CC2C3)c(-c2ccccc2)s1 (racemic) [Example 1] | 6.31 | 295 | OX1 pKi (SPA binding) ([1]; Table 1, [3H]SB-674042 2 nM): 8.14; OX2 pKi (SPA binding) ([2]; Table 1, [3H]EMPA 2 nM): 6.97 |
| Cc1ccc(-c2ncccn2)c(C(=O)N2C(COc3ccc(F)cc3)CC3CC2C3)c1 (single isomer, unassigned) [Example 17, (3S or 3R) 3-(4-fluorophenoxymethyl)-2-{[5-methyl-2-(pyrimidin-2-yl)phenyl]carbonyl}-2-azabicyclo[3.1.1]heptane] | 15.1 | 355 | – |
| Cc1nc(C(=O)N2C(COc3ccc(F)cc3)CC3CC2C3)c(-c2ccccc2)s1 (single isomer, unassigned) [Example 3, (3S or 3R) 3-[(4-fluorophenoxy)methyl]-2-(2-methyl-5-phenyl-1,3-thiazole-4-carbonyl)-2-azabicyclo[3.1.1]heptane] | 2.34 | 81.3 | – |
| Cc1nc(C(=O)N2C3CC(C3)C(C)C2COc2ccc(F)cc2)c(-c2ccccc2)s1 (mixture of isomers) [Example 64, CIS/TRANS 3-(4-fluorophenoxymethyl)-4-methyl-2-(2-methyl-5-phenyl-1,3-thiazole-4-carbonyl)-2-azabicyclo[3.1.1]heptane] | 3.16 | 282 | – |
| Cc1ccc(-c2ncccn2)c(C(=O)N2C(COc3ccc(F)cc3)CC3CC2C3)c1 (racemic) [Example 16] | 28.8 | 537 | – |
| Cc1ccc(-c2ncccn2)c(C(=O)N2C3CC(C3)[C@H](C)[C@H]2COc2ccc(F)cc2)c1 (single isomer, unassigned) [Example 70, (3S,4S or 3R,4R) 3-(4-fluorophenoxymethyl)-4-methyl-2-[5-methyl-2-(pyrimidin-2-yl)benzoyl]-2-azabicyclo[3.1.1]heptane] | 13.5 | 2450 | – |

Further molecules by falling Ki [4], results first:

| Ki [4] [nM] | Ki [5] [nM] | Structure (SMILES) | other results |
| --- | --- | --- | --- |
| 91.2 | 977 | Cc1ccc(-c2ncccn2)c(C(=O)N2C(COc3ccc(Cl)cc3)CC3CC2C3)c1 (stereo not drawn) [Example 19] | – |
| 72.4 | 513 | Cc1ccc(-c2ncccn2)c(C(=O)N2C(COc3ccc(Cl)cn3)CC3CC2C3)c1 (racemic) [Example 32] | – |
| 46.8 | 617 | Cc1ccc(-n2nccn2)c(C(=O)N2C(COc3ccc(F)cn3)CC3CC2C3)c1 (single isomer, unassigned) [Example 29, (3S or 3R) 3-{[(5-fluoropyridin-2-yl)oxy]methyl}-2-{[5-methyl-2-(2H-1,2,3-triazol-2-yl)phenyl]carbonyl}-2-azabicyclo[3.1.1]heptane] | – |
| 30.2 | 209 | Cc1ccc(-c2nccs2)c(C(=O)N2C(COc3ccc(F)cn3)CC3CC2C3)c1 (racemic) [Example 25] | – |
| 27.5 | 1050 | Cc1ccc(-n2nccn2)c(C(=O)N2C(COc3ccc(F)cc3)CC3CC2C3)c1 (single isomer, unassigned) [Example 12, (3S or 3R) 3-(4-fluorophenoxymethyl)-2-{[5-methyl-2-(2H-1,2,3-triazol-2-yl)phenyl]carbonyl}-2-azabicyclo[3.1.1]heptane] | – |
| 24 | 110 | Cc1ccc(-c2ncccn2)c(C(=O)N2C(COc3ccc(Cl)cn3)CC3CC2C3)c1 (single isomer, unassigned) [Example 33, (3S or 3R) 3-{[(5-chloropyridin-2-yl)oxy]methyl}-2-{[5-methyl-2-(pyrimidin-2-yl)phenyl]carbonyl}-2-azabicyclo[3.1.1]heptane] | – |
| 22.4 | 224 | Cc1ccc(-c2ncccn2)c(C(=O)N2C(CCOc3ccc(F)cc3)CC3CC2C3)c1 (racemic) [Example 41] | – |
| 14.8 | 347 | Cc1ccc(-n2nccn2)c(C(=O)N2C(COc3ccc(F)cc3)CC3CC2C3)c1 (racemic) [Example 10] | – |
| 6.31 | 1050 | Cc1nc(C(=O)N2C3CC(C3)C(C)C2COc2cc3ccccc3cn2)c(-c2ccccc2)s1 (mixture of isomers) [Example 85, CIS/TRANS 3-{[4-methyl-2-(2-methyl-5-phenyl-1,3-thiazole-4-carbonyl)-2-azabicyclo[3.1.1]heptan-3-yl]methoxy}isoquinoline] | – |
| 4.07 | 52.5 | Cc1ccc(-c2ncccn2)c(C(=O)N2C(COc3ccc(F)cc3)CC3CC2C3)n1 (single isomer, unassigned) [Example 15, (3S or 3R) 3-(4-fluorophenoxymethyl)-2-{[6-methyl-3-(pyrimidin-2-yl)pyridin-2-yl]carbonyl}-2-azabicyclo[3.1.1]heptane] | – |
| 3.98 | 79.4 | Cc1ccc(-c2nccs2)c(C(=O)N2C(COc3ccc(F)cc3)CC3CC2C3)c1 (single isomer, unassigned) [Example 9, (3S or 3R) 3-(4-fluorophenoxymethyl)-2-{[5-methyl-2-(1,3-thiazol-2-yl)phenyl]carbonyl}-2-azabicyclo[3.1.1]heptane] | – |
| 0.741 | 138 | Cc1nc(C(=O)N2C3CC(C3)[C@H](C)[C@@H]2COc2ccc(F)cc2)c(-c2ccccc2)s1 (single isomer, unassigned) [Example 68, (3S,4R or 3R,4S) 3-(4-fluorophenoxymethyl)-4-methyl-2-(2-methyl-5-phenyl-1,3-thiazole-4-carbonyl)-2-azabicyclo[3.1.1]heptane] | – |
